According to the NIST ThermoML archive (doi:10.1016/j.jct.2011.08.016):
Numbers after ± are expanded uncertainties.

Assay: xn = mol fraction of the nth substance listed
Conditions: Liquid, Vibrating tube method

CCCCCCCCCC [decane] + CCCCCCC
Conditions	mass density [kg/m3]
313.18 K, 10000 kPa, x2 = 0.5219	703.05 ± 0.46
313.18 K, 10000 kPa, x2 = 0.777	690.24 ± 0.47
313.18 K, 10990 kPa, x2 = 0.5219	703.9 ± 0.47
313.18 K, 10990 kPa, x2 = 0.777	691.12 ± 0.48
313.18 K, 12000 kPa, x2 = 0.5219	704.76 ± 0.47
313.18 K, 12000 kPa, x2 = 0.777	692.05 ± 0.49
313.18 K, 13000 kPa, x2 = 0.5219	705.6 ± 0.48
313.18 K, 13000 kPa, x2 = 0.777	692.92 ± 0.49
313.18 K, 14000 kPa, x2 = 0.5219	706.44 ± 0.49
313.18 K, 14000 kPa, x2 = 0.777	693.78 ± 0.5
313.18 K, 15000 kPa, x2 = 0.5219	707.25 ± 0.49
313.18 K, 15000 kPa, x2 = 0.777	694.64 ± 0.51
313.18 K, 16000 kPa, x2 = 0.5219	708.05 ± 0.5
313.18 K, 16000 kPa, x2 = 0.777	695.5 ± 0.51
313.18 K, 17000 kPa, x2 = 0.5219	708.84 ± 0.5
313.18 K, 17000 kPa, x2 = 0.777	696.33 ± 0.52
313.18 K, 18000 kPa, x2 = 0.5219	709.64 ± 0.51
313.18 K, 18000 kPa, x2 = 0.777	697.16 ± 0.53
313.18 K, 19000 kPa, x2 = 0.5219	710.37 ± 0.52
313.18 K, 19000 kPa, x2 = 0.777	697.97 ± 0.53
313.18 K, 20000 kPa, x2 = 0.5219	711.12 ± 0.52
313.18 K, 20000 kPa, x2 = 0.777	698.77 ± 0.54
313.18 K, 21000 kPa, x2 = 0.5219	711.85 ± 0.53
313.18 K, 21000 kPa, x2 = 0.777	699.55 ± 0.55
313.18 K, 22000 kPa, x2 = 0.5219	712.53 ± 0.54
313.18 K, 22000 kPa, x2 = 0.777	700.31 ± 0.55
313.18 K, 23000 kPa, x2 = 0.5219	713.24 ± 0.54
313.18 K, 23000 kPa, x2 = 0.777	701 ± 0.56
313.18 K, 24000 kPa, x2 = 0.5219	713.92 ± 0.55
313.18 K, 24000 kPa, x2 = 0.777	701.71 ± 0.57
313.18 K, 25000 kPa, x2 = 0.5219	714.55 ± 0.56
313.18 K, 25000 kPa, x2 = 0.777	702.37 ± 0.57
323.14 K, 1000 kPa, x2 = 0.5219	687.21 ± 0.42
323.14 K, 1000 kPa, x2 = 0.952	662.62 ± 0.43
323.14 K, 2000 kPa, x2 = 0.5219	688.12 ± 0.42
323.14 K, 2000 kPa, x2 = 0.952	663.72 ± 0.44
323.14 K, 3000 kPa, x2 = 0.5219	689.02 ± 0.43
323.14 K, 3000 kPa, x2 = 0.952	664.82 ± 0.44
323.14 K, 4000 kPa, x2 = 0.5219	689.95 ± 0.43
323.14 K, 4000 kPa, x2 = 0.952	665.9 ± 0.45
323.14 K, 5000 kPa, x2 = 0.5219	690.88 ± 0.44
323.14 K, 5000 kPa, x2 = 0.952	666.98 ± 0.45
323.14 K, 6000 kPa, x2 = 0.5219	691.82 ± 0.44
323.14 K, 6000 kPa, x2 = 0.952	668.05 ± 0.46
323.14 K, 7000 kPa, x2 = 0.5219	692.78 ± 0.45
323.14 K, 7000 kPa, x2 = 0.952	669.1 ± 0.47
323.14 K, 8000 kPa, x2 = 0.5219	693.71 ± 0.46
323.14 K, 8000 kPa, x2 = 0.952	670.14 ± 0.47
323.14 K, 9000 kPa, x2 = 0.5219	694.65 ± 0.46
323.14 K, 9000 kPa, x2 = 0.952	671.16 ± 0.48
323.14 K, 10000 kPa, x2 = 0.5219	695.58 ± 0.47
323.14 K, 10000 kPa, x2 = 0.952	672.17 ± 0.49
323.14 K, 10990 kPa, x2 = 0.5219	696.5 ± 0.47
323.14 K, 10990 kPa, x2 = 0.952	673.16 ± 0.49
323.14 K, 12000 kPa, x2 = 0.5219	697.4 ± 0.48
323.14 K, 12000 kPa, x2 = 0.952	674.14 ± 0.5
323.14 K, 13000 kPa, x2 = 0.5219	698.29 ± 0.48
323.14 K, 13000 kPa, x2 = 0.952	675.1 ± 0.51
323.14 K, 14000 kPa, x2 = 0.5219	699.17 ± 0.49
323.14 K, 14000 kPa, x2 = 0.952	676.05 ± 0.51
323.14 K, 15000 kPa, x2 = 0.5219	700.04 ± 0.5
323.14 K, 15000 kPa, x2 = 0.952	676.99 ± 0.52
323.14 K, 16000 kPa, x2 = 0.5219	700.9 ± 0.5
323.14 K, 16000 kPa, x2 = 0.952	677.91 ± 0.53
323.14 K, 17000 kPa, x2 = 0.5219	701.74 ± 0.51
323.14 K, 17000 kPa, x2 = 0.952	678.82 ± 0.53
323.14 K, 18000 kPa, x2 = 0.5219	702.6 ± 0.52
323.14 K, 18000 kPa, x2 = 0.952	679.71 ± 0.54
323.14 K, 19000 kPa, x2 = 0.5219	703.38 ± 0.52
323.14 K, 19000 kPa, x2 = 0.952	680.59 ± 0.55
323.14 K, 20000 kPa, x2 = 0.5219	704.18 ± 0.53
323.14 K, 20000 kPa, x2 = 0.952	681.45 ± 0.56
323.14 K, 21000 kPa, x2 = 0.5219	704.97 ± 0.54
323.14 K, 21000 kPa, x2 = 0.952	682.3 ± 0.56
323.14 K, 22000 kPa, x2 = 0.5219	705.7 ± 0.54
323.14 K, 22000 kPa, x2 = 0.952	683.13 ± 0.57
323.14 K, 23000 kPa, x2 = 0.5219	706.43 ± 0.55
323.14 K, 23000 kPa, x2 = 0.952	683.92 ± 0.58
323.14 K, 24000 kPa, x2 = 0.5219	707.14 ± 0.56
323.14 K, 24000 kPa, x2 = 0.952	684.73 ± 0.59
323.14 K, 25000 kPa, x2 = 0.5219	707.83 ± 0.56
323.14 K, 25000 kPa, x2 = 0.952	685.51 ± 0.6
323.15 K, 1000 kPa, x2 = 0.0531	705.96 ± 0.41
323.15 K, 1000 kPa, x2 = 0.2594	698.56 ± 0.42
323.15 K, 2000 kPa, x2 = 0.0531	706.92 ± 0.42
323.15 K, 2000 kPa, x2 = 0.2594	699.45 ± 0.42
323.15 K, 3000 kPa, x2 = 0.0531	707.86 ± 0.42
323.15 K, 3000 kPa, x2 = 0.2594	700.3 ± 0.42
323.15 K, 4000 kPa, x2 = 0.0531	708.79 ± 0.42
323.15 K, 4000 kPa, x2 = 0.2594	701.18 ± 0.43
323.15 K, 5000 kPa, x2 = 0.0531	709.69 ± 0.43
323.15 K, 5000 kPa, x2 = 0.2594	702.06 ± 0.43
323.15 K, 6000 kPa, x2 = 0.0531	710.58 ± 0.43
323.15 K, 6000 kPa, x2 = 0.2594	702.96 ± 0.44
